Results: patent US20250313575A1, “MACROCYCLES AS LRRK2 INHIBITORS, PHARMACEUTICAL COMPOSITIONS, AND USES THEREOF” (Merck Sharp & Dohme LLC, priority 2022, published 2025)

Molecular target: GST-tagged truncated human mutant G2019S LRRK2 (Homo sapiens (Human), UniProt Q5S007, G2019S)
Test: LRRK2 G2019S Km ATP LanthaScreen assay
Format: biochemical
Conditions: G2019S LRRK2, 134 μM ATP (Km ATP), LRRKtide substrate
In short: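 Ten-point compound series (highest 9.99 μM in DMSO) preincubated 15 min with 1.25 nM GST-tagged truncated human LRRK2 G2019S, then 90 min reaction at ambient temperature with 134 μM ATP (Km) and fluorescein-labelled LRRKtide, pH 8.5. Phosphorylation read as 520/495 nm emission ratio via Tb-labelled antibody; IC50 from 4P logistic regression.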

Sequence of GST-tagged truncated human mutant G2019S LRRK2 (Q5S007 970-2527 G2019S): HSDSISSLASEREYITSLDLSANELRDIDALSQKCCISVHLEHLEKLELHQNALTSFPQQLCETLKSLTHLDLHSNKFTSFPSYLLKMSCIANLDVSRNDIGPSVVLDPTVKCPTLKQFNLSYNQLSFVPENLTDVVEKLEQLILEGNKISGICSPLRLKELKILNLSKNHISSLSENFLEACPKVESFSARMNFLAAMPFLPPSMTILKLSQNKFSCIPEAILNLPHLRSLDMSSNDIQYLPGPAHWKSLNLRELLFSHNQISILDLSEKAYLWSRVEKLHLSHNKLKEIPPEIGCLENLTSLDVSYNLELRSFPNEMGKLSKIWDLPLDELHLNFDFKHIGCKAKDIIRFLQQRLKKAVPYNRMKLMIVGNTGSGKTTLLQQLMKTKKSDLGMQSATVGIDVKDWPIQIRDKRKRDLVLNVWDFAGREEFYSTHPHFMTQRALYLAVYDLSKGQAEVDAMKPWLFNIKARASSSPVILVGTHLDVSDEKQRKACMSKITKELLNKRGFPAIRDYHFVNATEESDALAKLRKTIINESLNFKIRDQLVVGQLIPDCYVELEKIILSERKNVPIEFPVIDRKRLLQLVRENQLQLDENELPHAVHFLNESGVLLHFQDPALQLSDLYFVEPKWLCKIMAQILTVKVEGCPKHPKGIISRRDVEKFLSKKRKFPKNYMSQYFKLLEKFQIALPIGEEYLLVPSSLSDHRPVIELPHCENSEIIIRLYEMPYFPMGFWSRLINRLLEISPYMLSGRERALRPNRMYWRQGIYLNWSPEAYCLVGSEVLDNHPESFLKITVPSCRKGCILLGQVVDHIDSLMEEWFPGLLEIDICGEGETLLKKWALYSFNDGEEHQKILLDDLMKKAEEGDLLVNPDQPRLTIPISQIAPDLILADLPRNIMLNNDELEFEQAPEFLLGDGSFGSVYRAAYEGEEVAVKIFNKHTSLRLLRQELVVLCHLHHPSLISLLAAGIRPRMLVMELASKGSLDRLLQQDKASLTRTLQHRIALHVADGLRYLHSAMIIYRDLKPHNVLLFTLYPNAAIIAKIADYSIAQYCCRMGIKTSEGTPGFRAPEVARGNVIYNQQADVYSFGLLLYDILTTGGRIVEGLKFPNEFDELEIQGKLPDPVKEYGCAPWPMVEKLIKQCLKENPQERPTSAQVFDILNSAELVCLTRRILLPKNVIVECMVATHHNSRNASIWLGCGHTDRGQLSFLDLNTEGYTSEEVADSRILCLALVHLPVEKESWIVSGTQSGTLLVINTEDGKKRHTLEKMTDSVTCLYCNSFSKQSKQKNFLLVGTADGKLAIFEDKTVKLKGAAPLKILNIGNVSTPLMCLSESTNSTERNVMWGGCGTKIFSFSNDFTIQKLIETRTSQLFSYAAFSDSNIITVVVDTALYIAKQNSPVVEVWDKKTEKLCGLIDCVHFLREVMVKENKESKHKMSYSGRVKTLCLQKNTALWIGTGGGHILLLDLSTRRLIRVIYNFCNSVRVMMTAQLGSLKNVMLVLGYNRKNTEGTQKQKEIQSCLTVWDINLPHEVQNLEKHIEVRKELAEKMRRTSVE

First: Cc1nn(C2CCC2)c2c1OC1COC[C@H]1CNc1nc(ncc1C(F)(F)F)N2 (single isomer, unassigned) [Ex-2.82, (11aR,14aS) or (11aS,14aR)-3-cyclobutyl-1-methyl-8-(trifluoromethyl)-3,4,10,11,11a,12,14,14a-octahydro-5,9-(azeno)furo[3,4-1]pyrazolo[4,3-b][1]oxa[4,6,10]triazacyclotridecine]
Second: COC1CCC1n1nc(C)c2c1Nc1ncc(C(F)(F)F)c(n1)NC1COCC1CO2 [Ex-2.41, (10aS,13aS)-3-((1R,2R)-(10aS,13aS)-3-((1S,2R)-(10aS,13aS)-3-((1R,2S)-(10aS,13aS)-3-((1R,2R)-(10aR,13aR)-3-((1S,2R)-(10aR,13aR)-3-((1R,2S)-2-methoxycyclobutyl)-1-methyl-8-(trifluoromethyl)-3,4,10a,11,13a,14-hexahydro-10H,13H-5,9-(azeno)furo[3,4-k]pyrazolo[4,3-b][1]oxa[4,6,10]triazacyclotridecine]
The “LRRK2 pIC50” value of the first is higher: 9.60 for the first, 6.51 for the second.

Going from `CC(C)(C#N)c1nn(C2CCC2)c2c1OC[C@H]1CC[C@@H]1Nc1nc(ncc1C(F)(F)F)N2` [Ex-2.52, 2-((10aS,12aS)- or 2-((10aR,12aR)-3-cyclobutyl-8-(trifluoromethyl)-3,4,10,10a,11,12,12a,13-octahydro-5,9-(azeno)cyclobuta[k]pyrazolo[4,3-b][1]oxa[4,6,10]triazacyclotridecin-1-yl)-2-methylpropanenitrile] to `Cn1nc(C2CC2)c2c1OCC1CCC1Nc1nc(ncc1C(F)(F)F)N2` [Ex-1.10, (10aR,12aR)- or (10aS,12aS)-3-cyclopropyl-1-methyl-8-(trifluoromethyl)-1,4,10,10a,11,12,12a,13-octahydro-5,9-(azeno)cyclobuta[k]pyrazolo-[3,4-b][1]oxa[4,6,10]triazacyclo-tridecine], the “LRRK2 pIC50” value rises from 5.96 to 6.58.

First: O[C@@H]1COCC1n1nc(C2CC2)c2c1OC[C@H]1CC[C@@H]1Nc1nc(ncc1C(F)(F)F)N2 (single isomer, unassigned) [Ex-6.1, (3R,4S)-4-((10aR,12aR)- or (3R,4S)-4-((10aS,12aS)- or (3S,4R)-4-((10aR,12aR)- or (3S,4R)-4-((10aR,12aR)-3-cyclopropyl-8-(trifluoromethyl)-10,10a,11,12,12a,13-hexahydro-5,9-(azeno)cyclobuta[k]pyrazolo[3,4-b][1]oxa[4,6,10]triazacyclotridecin-1 (4H)-yl)tetrahydrofuran-3-ol]
Second: Cc1nn2c(c1C)Nc1ncc(C(F)(F)F)c(n1)N[C@@H](C)CCC2 (single isomer, unassigned) [Ex-16.1, 8,14,15-Trimethyl-5-(trifluoromethyl)-8,9,10,11-tetrahydro-1H,7H-2,6-(azeno)pyrazolo[1,5-a][1,3,5,9]tetraazacyclotridecine]
The “LRRK2 pIC50” value of the first is higher: 7.94 for the first, 7.70 for the second.

Compared with `CC(C)c1nn(C(C)(C)C#N)c2c1Nc1ncc(C(F)(F)F)c(n1)N[C@@H]1COC[C@H]1CO2` [Ex-1.14, 2-((10aS,13aS)-3-isopropyl-8-(trifluoromethyl)-10a,11,13a,14-tetrahydro-10H,13H-5,9-(azeno)furo[3,4-k]pyrazolo[3,4-b][1]oxa[4,6,10]triazacyclotridecin-1(4H)-yl)-2-methylpropanenitrile], `Cc1nn(C2CC2)c2c1O[C@@H]1CC[C@@H]1CNc1nc(ncc1C(F)(F)F)N2` [Ex-2.86, (11aR,13aR)- or (11aS,13aS)-3-cyclopropyl-1-methyl-8-(trifluoromethyl)-3,4,10,11,11a,12,13,13a-octahydro-5,9-(azeno)cyclobuta[l]pyrazolo[4,3-b][1]oxa[4,6,10]triazacyclotridecine] is lower in “LRRK2 pIC50” value: 8.66 for the first, 8.13 for the second.

Compared with `COC1CCC1n1nc(C)c2c1Nc1ncc(C(F)(F)F)c(n1)NC1COCC1CO2` [Ex-2.38, (10aS,13aS)-3-((1R,2R)-(10aS,13aS)-3-((1S,2R)-(10aS,13aS)-3-((1R,2S)-(10aS,13aS)-3-((1R,2R)-(10aR,13aR)-3-((1S,2R)-(10aR,13aR)-3-((1R,2S)-2-methoxycyclobutyl)-1-methyl-8-(trifluoromethyl)-3,4,10a,11,13a,14-hexahydro-10H,13H-5,9-(azeno)furo[3,4-k]pyrazolo[4,3-b][1]oxa[4,6,10]triazacyclotridecine], `Cc1nn(C(C)C)c2c1OC[C@@H]1CC[C@H]1Nc1cc(ncc1Cl)N2` [Ex-13.4, (10aR,12aR)-8-chloro-3-isopropyl-1-methyl-3,4,10,10a,11,12,12a,13-octahydro-5,9-(metheno)cyclobuta[k]pyrazolo[4,3-b][1]oxa[4,6,10]triazacyclotridecine] is higher in “LRRK2 pIC50” value: 6.13 for the first, 9.61 for the second.

“(R)- or (S)-1-cyclopropyl-3,7-dimethyl-10- (trifluoromethyl)-1,5,6,7,8,14-hexahydro- 9,13-(azeno)pyrazolo[4,3- b][1]oxa[4,6,10]triazacyclotridecine [Ex-2.20]” and `Cc1nn(C2CCC2)c2c1OC[C@@H]1CC[C@H]1Nc1nc(ncc1C(F)(F)F)N2` [Ex-2.4, (10aR,12aR)- or (10aS,12aS)-3-Cyclobutyl-1-methyl-8-(trifluoromethyl)-3,4,10,10a,11,12,12a,13-octahydro-5,9-(azeno)cyclobuta[k]pyrazolo[4,3-b][1]oxa[4,6,10]triazacyclotridecine] are within 0.2 log units of each other in “LRRK2 pIC50” value: 6.71 for the first, 6.66 for the second.

Compared with `CC1CCOc2c(C(C)(C)C#N)nn(C3CCC3)c2Nc2ncc(C(F)(F)F)c(n2)N1` (single isomer, unassigned) [Ex-2.30, (R)- or (S)-butyl-7-methyl-10-(trifluoromethyl)-1,5,6,7,8,14-hexahydro-9,13-(azeno)pyrazolo[4,3-b][1]oxa[4,6,10]triazacyclotridecin-3-yl)-2-methylpropanenitrile], `Cc1nn(C2CCC2)c2c1OC[C@H]1COC[C@@H]1Nc1cc(ncc1C(F)(F)F)N2` [Ex-13.2, (10aR,13aR)-3-cyclobutyl-1-methyl-8-(trifluoromethyl)-3,4,10a,11,13a,14-hexahydro-10H,13H-5,9-(metheno)furo[3,4-k]pyrazolo[4,3-b][1]oxa[4,6,10]triazacyclotridecine] is lower in “LRRK2 pIC50” value: 10.03 for the first, 7.01 for the second.

First: Cc1nn(C(C)C)c2c1OC[C@@H]1CC[C@H]1Nc1nc(ncc1Cl)N2 [Ex-2.61, (10aR,12aR)-8-chloro-3-isopropyl-1-methyl-3,4,10,10a,11,12,12a,13-octahydro-5,9-(azeno)cyclobuta[k]pyrazolo[4,3-b][1]oxa[4,6,10]triazacyclotridecine]
Second: CC(C)n1nc(C2C[C@@H]2C#N)c2c1Nc1ncc(C(F)(F)F)c(n1)N[C@@H]1COC[C@H]1CO2 (single isomer, unassigned) [Ex-2.45, (1S,2S)- or (1R,2R)-2-((10aS,13aS)-3-isopropyl-8-(trifluoromethyl)-3,4,10a,11,13a,14-hexahydro-10H,13H-5,9-(azeno)furo[3,4-k]pyrazolo[4,3-b][1]oxa[4,6,10]triazacyclotridecin-1-yl)cyclopropane-1-carbonitrile]
The “LRRK2 pIC50” value of the first is higher: 9.60 for the first, 8.32 for the second.

`Cc1nn(C2CCC2)c2c1OC[C@@H]1CC[C@H]1Nc1cc(ncc1F)N2` [Ex-13.6, (10aR,12aR)-3-cyclobutyl-8-fluoro-1-methyl-3,4,10,10a,11,12,12a,13-octahydro-5,9-(metheno)cyclobuta[k]pyrazolo[4,3-b][1]oxa[4,6,10]triazacyclotridecine] was tested, and the “LRRK2 pIC50” value was <5.00.
`Cc1nn(C2CCC2)c2c1OC[C@@H]1COC[C@H]1Nc1nc(ncc1C(F)(F)F)N2` [Ex-5.1, (10aS,13aS)-3-cyclobutyl-1-methyl-8-(trifluoromethyl)-3,4,10a,11,13a,14-hexahydro-10H,13H-5,9-(azeno)furo[3,4-k]pyrazolo[4,3-b][1]oxa[4,6,10]triazacyclotridecine] was tested, and the “LRRK2 pIC50” value was >10.09.
`Cc1nn(C2CCC2)c2c1OC[C@@H]1COC[C@H]1Nc1nc(ncc1Cl)N2` [Ex-2.49, (10aS,13aS)-8-chloro-3-cyclobutyl-1-methyl-3,4,10a,11,13a,14-hexahydro-10H,13H-5,9-(azeno)furo[3,4-k]pyrazolo[4,3-b][1]oxa[4,6,10]triazacyclotridecine] was tested, and the “LRRK2 pIC50” value was >10.09.
In the case of `CC(C)c1nn(C2CS(=O)(=O)C2)c2c1Nc1ncc(C(F)(F)F)c(n1)N[C@@H]1CC[C@H]1CO2` [Ex-10.1, 3-((10aR,12aR)-3-isopropyl-8-(trifluoromethyl)-10,10a,11,12,12a,13-hexahydro-5,9-(azeno)cyclobuta[k]pyrazolo[3,4-b][1]oxa[4,6,10]triazacyclotridecin-1 (4H)-yl) thietane 1,1-dioxide], the “LRRK2 pIC50” value is reported as >10.09.
For `Cn1nc(C(F)(F)F)c2c1OCC1COC[C@H]1Nc1nc(ncc1C(F)(F)F)N2` (stereo partly drawn) [Ex-1.2, (10aS,13aS)-1-Methyl-3,8-bis(trifluoromethyl)-1,4,10a,11,13a,14-hexahydro-10H,13H-5,9-(azeno)furo[3,4-k]pyrazolo[3,4-b][1]oxa[4,6,10]triazacyclotridecine], the “LRRK2 pIC50” value was >10.09.

Same assay, conditions: G2019S LRRK2, 134 μM ATP (Km ATP), LRRKtide substrate; read-out: LRRK2 pIC50 (converted)

Going from `Cc1nn(C)c2c1CCC[C@@H](C)Nc1nc(ncc1C(F)(F)F)N2` (single isomer, unassigned) [Ex-11.2, (R)- or (S)-1,3,7-Trimethyl-10-(trifluoromethyl)-4,5,6,7,8,14-hexahydro-1H-9,13-(azeno)pyrazolo[4,3-l][1,3,7]triazacyclotridecine] to `COC1CC(n2nc(C)c3c2Nc2ncc(C(F)(F)F)c(n2)NC2COCC2CO3)C1` (single isomer, unassigned) [Ex-2.31, (10aS,13aS)- or (10aR,13aR)-3-((1R,3S)-3-methoxycyclobutyl)-1-methyl-8-(trifluoromethyl)-3,4,10a,11,13a,14-hexahydro-10H,13H-5,9-(azeno)furo[3,4-k]pyrazolo[4,3-b][1]oxa[4,6,10]triazacyclotridecine], the IC50 rises from 3.16 nM to 288 nM (91-fold).
